System: 885724-159-R-J1-PDC KRAS PDC multicell spheroid viability
Test: Anticancer human tumor 885724-159-R-J1-PDC patient-derived pancreatic adenocarcinoma cell line growth inhibition [KRAS2]
Details: for IC50: curve of first compound; for viability, T/C: stronger effect = lower value
Method in brief: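 KRAS-mutant tumor cells were grown as spheroids with HUVEC endothelial cells and human MSCs as stroma. Targeted agents were tested alone and with KRAS pathway inhibitors. Doses started at or near clinical Cmax, or 10 microM, descending half-log.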

[1] = second compound 0.1 µM, first compound 0.0316 µM
[2] = second compound 0.1 µM, first compound 0.1 µM
[3] = second compound 0.1 µM, first compound 0.316 µM
[4] = second compound 0.1 µM, first compound 1 µM
[5] = second compound 0.1 µM, first compound 3.16 µM
[6] = second compound 0.316 µM, first compound 0.0316 µM
[7] = second compound 0.316 µM, first compound 0.1 µM
[8] = second compound 0.316 µM, first compound 0.316 µM
[9] = second compound 0.316 µM, first compound 1 µM
[10] = second compound 0.316 µM, first compound 3.16 µM
[11] = second compound 1 µM, first compound 0.0316 µM
[12] = second compound 1 µM, first compound 0.1 µM
[13] = second compound 1 µM, first compound 0.316 µM
[14] = second compound 1 µM, first compound 1 µM
[15] = second compound 1 µM, first compound 3.16 µM
[16] = second compound 3.16 µM, first compound 0.0316 µM
[17] = second compound 3.16 µM, first compound 0.1 µM
[18] = second compound 3.16 µM, first compound 0.316 µM
[19] = second compound 3.16 µM, first compound 1 µM
[20] = second compound 3.16 µM, first compound 3.16 µM
[21] = second compound 10 µM, first compound 0.0316 µM
[22] = second compound 10 µM, first compound 0.1 µM
[23] = second compound 10 µM, first compound 0.316 µM
[24] = second compound 10 µM, first compound 1 µM
[25] = second compound 10 µM, first compound 3.16 µM
[26] = second compound 0.1 µM, first compound 0.01 µM
[27] = second compound 0.316 µM, first compound 0.01 µM
[28] = second compound 1 µM, first compound 0.01 µM
[29] = second compound 3.16 µM, first compound 0.01 µM
[30] = second compound 10 µM, first compound 0.01 µM
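Further: spheroids exposed to agents for 7 days before readout.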

Q: For `Cn1nccc1Nc1nccc(-c2cc3c(s2)C(C)(C)N(CCN2CCOCC2)C3=O)n1` + CC1OCC2(CCN(c3cnc(Sc4ccnc(N)c4Cl)c(N)n3)CC2)C1N, which IC50 (second compound 0.1 µM) is on record?
A: 330 nM

Q: And the IC50 (second compound 0.316 µM)?
A: 239 nM

Q: What about the IC50 (second compound 1 µM) of the same molecule?
A: 223 nM

Q: And the IC50 (second compound 3.16 µM)?
A: 191 nM

Q: What about the IC50 (second compound 10 µM) of the same molecule?
A: 105 nM

Q: And the viability, T/C [1]?
A: 87.4%

Q: And the viability, T/C [2]?
A: 68.4%

Q: What about the viability, T/C [3] of the same molecule?
A: 50.4%

Q: And the viability, T/C [4]?
A: 38.2%

Q: And the viability, T/C [5]?
A: 32.8%

Q: What about the viability, T/C (second compound 0.1 µM, first compound 10 µM) of the same molecule?
A: 28.8%

Q: What about the viability, T/C [6] of the same molecule?
A: 82.8%

Q: What about the viability, T/C [7] of the same molecule?
A: 65.9%

Q: What about the viability, T/C [8] of the same molecule?
A: 43.2%

Q: What about the viability, T/C [9] of the same molecule?
A: 35.7%

Q: And the viability, T/C [10]?
A: 30.7%

Q: And the viability, T/C (second compound 0.316 µM, first compound 10 µM)?
A: 26.6%

Q: And the viability, T/C [11]?
A: 74.9%

Q: And the viability, T/C [12]?
A: 61.7%

Q: What about the viability, T/C [13] of the same molecule?
A: 44.8%

Q: What about the viability, T/C [14] of the same molecule?
A: 33.3%

Q: And the viability, T/C [15]?
A: 27.2%

Q: What about the viability, T/C (second compound 1 µM, first compound 10 µM) of the same molecule?
A: 26%

Q: And the viability, T/C [16]?
A: 64.7%

Q: What about the viability, T/C [17] of the same molecule?
A: 59.9%

Q: What about the viability, T/C [18] of the same molecule?
A: 42.2%

Q: What about the viability, T/C [19] of the same molecule?
A: 28.8%

Q: And the viability, T/C [20]?
A: 25.8%

Q: What about the viability, T/C (second compound 3.16 µM, first compound 10 µM) of the same molecule?
A: 24.1%

Q: What about the viability, T/C [21] of the same molecule?
A: 57%

Q: What about the viability, T/C [22] of the same molecule?
A: 51.4%

Q: And the viability, T/C [23]?
A: 35.9%

Q: What about the viability, T/C [24] of the same molecule?
A: 26.6%

Q: What about the viability, T/C [25] of the same molecule?
A: 22.4%

Q: And the viability, T/C (second compound 10 µM, first compound 10 µM)?
A: 20.6%

Q: Which results are given for `CC(=O)Nc1cccc(-n2c(=O)n(C3CC3)c(=O)c3c(Nc4ccc(I)cc4F)n(C)c(=O)c(C)c32)c1` + CNCc1ccccc1-c1csc(C(C)Nc2nc(C)nc3cc(OC)c(OC)cc23)c1?
A: IC50 (second compound 0.1 µM): 0.893 nM; IC50 (second compound 0.316 µM): 0.824 nM; IC50 (second compound 1 µM): 0.519 nM; IC50 (second compound 3.16 µM): < 0.1 nM; IC50 (second compound 10 µM): < 0.1 nM; viability, T/C (second compound 0.1 µM, first compound 0.0001 µM): 90.3%; viability, T/C (second compound 0.1 µM, first compound 0.000316 µM): 71.2%; viability, T/C (second compound 0.1 µM, first compound 0.001 µM): 43.9%; viability, T/C (second compound 0.1 µM, first compound 0.00316 µM): 34.7%; viability, T/C [26]: 24.7%; viability, T/C [1]: 16.2%; viability, T/C (second compound 0.316 µM, first compound 0.0001 µM): 90.4%; viability, T/C (second compound 0.316 µM, first compound 0.000316 µM): 70.2%; viability, T/C (second compound 0.316 µM, first compound 0.001 µM): 43.9%; viability, T/C (second compound 0.316 µM, first compound 0.00316 µM): 30.3%; viability, T/C [27]: 20.5%; viability, T/C [6]: 12.9%; viability, T/C (second compound 1 µM, first compound 0.0001 µM): 90.8%; viability, T/C (second compound 1 µM, first compound 0.000316 µM): 63.7%; viability, T/C (second compound 1 µM, first compound 0.001 µM): 30.5%; viability, T/C (second compound 1 µM, first compound 0.00316 µM): 20.6%; viability, T/C [28]: 6.76%; viability, T/C [11]: 1.59%; viability, T/C (second compound 3.16 µM, first compound 0.0001 µM): 1.26%; viability, T/C (second compound 3.16 µM, first compound 0.000316 µM): 0.83%; viability, T/C (second compound 3.16 µM, first compound 0.001 µM): 0.53%; viability, T/C (second compound 3.16 µM, first compound 0.00316 µM): 0.68%; viability, T/C [29]: 0.79%; viability, T/C [16]: 1.69%; viability, T/C (second compound 10 µM, first compound 0.0001 µM): 0.21%; viability, T/C (second compound 10 µM, first compound 0.000316 µM): 0.24%; viability, T/C (second compound 10 µM, first compound 0.001 µM): 0.25%; viability, T/C (second compound 10 µM, first compound 0.00316 µM): 0.37%; viability, T/C [30]: 0.34%; viability, T/C [21]: 0.69%

Q: Which results are given for `CC(=O)OC12COC1CC(O)C1(C)C(=O)C(O)C3=C(C)C(OC(=O)C(O)C(NC(=O)OC(C)(C)C)c4ccccc4)CC(O)(C(OC(=O)c4ccccc4)C21)C3(C)C` (stereo not given) + CNCc1ccccc1-c1csc(C(C)Nc2nc(C)nc3cc(OC)c(OC)cc23)c1?
A: IC50 (second compound 0.1 µM): > 3160 nM; IC50 (second compound 0.316 µM): > 3160 nM; IC50 (second compound 1 µM): > 3160 nM; IC50 (second compound 3.16 µM): < 10 nM; IC50 (second compound 10 µM): < 10 nM; viability, T/C [26]: 81.2%; viability, T/C [1]: 93.5%; viability, T/C [2]: 97%; viability, T/C [3]: 96.9%; viability, T/C [4]: 105%; viability, T/C [5]: 104%; viability, T/C [27]: 85.6%; viability, T/C [6]: 92.2%; viability, T/C [7]: 96.2%; viability, T/C [8]: 98.9%; viability, T/C [9]: 101%; viability, T/C [10]: 100%; viability, T/C [28]: 84.6%; viability, T/C [11]: 97.9%; viability, T/C [12]: 104%; viability, T/C [13]: 101%; viability, T/C [14]: 103%; viability, T/C [15]: 105%; viability, T/C [29]: 0.36%; viability, T/C [16]: 93.9%; viability, T/C [17]: 1.4%; viability, T/C [18]: 0.54%; viability, T/C [19]: 13%; viability, T/C [20]: 110%; viability, T/C [30]: 0.32%; viability, T/C [21]: 0.17%; viability, T/C [22]: 0.21%; viability, T/C [23]: 0.2%; viability, T/C [24]: 0.22%; viability, T/C [25]: 0.28%

Reference: PubChem BioAssay AID1963861 (Molecular Pharmacology Branch, DTP, NCI, 2024)
